The conditions of data set [1]: in vivo.
Data set [2] deals with hypoxic reduction in the level of creatine phosphate, adenosine triphosphate and glycogen in the heart muscle. Nature of the data set: animal or person. In kind it is in vivo, rat (male Wistar). As to conditions: for Relative activity: relative to (±) A = 1; for ED 50% (pretreatment dose which increases the ATP level by 50% compared with the hypoxic control group): 360 min. Here is the method:
Male Wistar rats weighing 250-300 g were anesthetized intraperitoneally with thiobutabarbital (100 mg/kg of body weight) and then subjected to standardized ventilation with an oxygen-deficient mixture (2% of O2 and 98% of N2) for 7 minutes. Using the freeze-stop technique, the apex of the heart was removed, mechanically comminuted and then digested with the addition of 0.6N perchloric acid. After centrifuging, creatine phosphate (according to Bergmeyer, H. U., Methoden der enzymatischen Analyse, Verlag Chemie, Weinheim, 2, (1974), 1825), adenosine triphosphate (according to Biochem. Biophys. Acta (Amst.) 1 (1947), 292) and glycogen (according to Biochem. J. 56 (1954), 1825) were determined in the supernatant liquid.
The test substances were administered to the conscious animals at various times before they were anesthetized and before the subsequent ventilation with an oxygen-deficient mixture. The percentage difference in the myocardial concentrations of adenosine triphosphate (ATP), creatine phosphate (CP) and glycogen in animals pretreated with the test substance compared with untreated hypoxic control animals was determined.
The ED 50% is the pretreatment dose of test substance which
increases the ATP level by 50% compared with the hypoxic

In data set [3] the test system is cerebral hypoxia. Description: Tolerance of the mouse to hypoxia (survival of oxygen-deficient ventilation). It counts as in vivo, mouse (female NMRI Ivanovas). As to conditions: for Effect on number of animals surviving hypoxia after 3 minutes: 96.5% N2 and 3.5% O2, dose-dependent for A and its antipodes; for ED 50% (dose at which 50% of the animals survived oxygen-deficient ventilation for 3 minutes): 60 min. The procedure: To test for tolerance to hypoxia, female mice (NMRI Ivanovas, weight 24-26 g) were introduced individually into glass tubes through which a gas mixture consisting of 96.5% of N2 and 3.5% of O2 flowed via a rotameter, at a rate of 4 liters/min. The time from the beginning of passage of the gas mixture until death occurred was measured.
Tolerance of the mouse to hypoxia, test carried out 1 hour
after oral administration of the test substances.
ED 50% means that, at the stated dose, 50% of the animals
survived oxygen-deficient ventilation for 3 minutes.

Data set [4] in a line: Overall findings (oral availability, duration of action, toleration). As to conditions: in vivo.
Data set [5] deals with blood pressure and heart rate. Nature of the data set: Blood pressure and heart rate of conscious spontaneously hypertensive rats. It counts as in vivo. As to conditions: 20 mg/kg oral.
Data set [6] deals with AV conduction. Nature of the data set: Effect on AV conduction in the dog. In kind it is in vivo. Here is the method:
The effect on the AV conduction was tested on a species suitable for this purpose, ie. the dog.

Data set [7] concerns heart and the circulation. As to conditions: similar doses; cited from earlier work.
The subject of data set [8] is PQ interval and myocardial contractility. Description: PQ interval and myocardial contractility in anesthetized pigs. As to conditions: 0.2 mg/kg intravenously. It counts as in vivo, pig.
[9] abbreviates: 5 mg/kg oral, 6 hours after administration, vs untreated hypoxic controls.
Where [10] appears, read: 10 mg/kg oral, 6 hours after administration, vs untreated hypoxic controls.
The mark [11] stands for this setting: 20 mg/kg oral, 2 hours after administration.
Where [12] appears, read: 20 mg/kg oral, 6 hours after administration (Table 2).
The mark [13] stands for this setting: 20 mg/kg oral, 6 hours after administration (Table 3, comparison with verapamil).
The mark [14] stands for this setting: 20 mg/kg oral, 6 hours after administration, vs untreated hypoxic controls (Table 1).
Setting [15] is: 20 mg/kg oral, 12 hours after administration.
Setting [16] is: 20 mg/kg oral, 18 hours after administration.
[17] abbreviates: 20 mg/kg oral, 24 hours after administration.
Where [18] appears, read: rat, 6 hours after oral administration.
The mark [19] stands for this setting: mouse, 1 hour after oral administration.
[20] abbreviates: 40 mg/kg oral, 6 hours after administration.
The mark [21] stands for this setting: 80 mg/kg oral, 6 hours after administration.

Structures are written as SMILES.

Turning to `CC(C)C(C#N)(CCCN(C)CCc1ccccc1)c1ccccc1` (racemic) [A, 1,7-diphenyl-3-methylaza-7-cyano-8-methylnonane], the “Reduction in the blood pressure” value in data set [1] is given as “does not result in a reduction in the blood pressure”. In data set [1], the Toleration entry is reported as “particularly well tolerated”. In addition, the “Inhibition of the hypoxic reduction in CP, ATP and glycogen in the heart muscle” value in data set [2] (5 mg/kg oral (lowest dose tested)) was “substantially inhibits the hypoxic reduction in the level of creatine phosphate, adenosine triphosphate and glycogen in the heart muscle”. Besides, the “Percentage difference in the amount of ATP” value in data set [2] (setting [9]) was determined as 24%; in data set [2] (setting [10]), 37%; in data set [2] (setting [11]), 31%; in data set [2] (setting [12]), 63%; in data set [2] (setting [13]), 63%; in data set [2] (setting [14]) it was 63%. In addition, the “Percentage difference in the amount of ATP” value is 42% in data set [2] (setting [15]), 40% in data set [2] (setting [16]) and 11% in data set [2] (setting [17]). For the same molecule, the “Percentage difference in the amount of CP” value in data set [2] (setting [9]) is 29%; in data set [2] (setting [10]), 47%; in data set [2] (setting [11]), 41%; in data set [2] (setting [12]), 80%; in data set [2] (setting [13]), 80%; in data set [2] (setting [14]), 80%. Further, the results for the “Percentage difference in the amount of CP” value in data set [2] (setting [15]), in data set [2] (setting [16]) and in data set [2] (setting [17]) were 42%, 32% and 22%, respectively. Also, the “Percentage difference in the amount of Glycogen” value is recorded as 10% in data set [2] (setting [9]); 27% in data set [2] (setting [10]); -1% in data set [2] (setting [11]); 50% in data set [2] (setting [12]); 50% in data set [2] (setting [13]); 50% in data set [2] (setting [14]). Besides, the “Percentage difference in the amount of Glycogen” value in data set [2] (setting [15]) is 19%; in data set [2] (setting [16]) it was 16%; in data set [2] (setting [17]), 26%. Besides, the “Cardioprotective effect at the dose” value in data set [2] (20 mg/kg oral, rat) was “maximum cardioprotective effect”. In addition, in data set [2] (20 mg/kg oral, CP and ATP), the “Onset of protective effect” value is “clearly detectable for the parameters CP and ATP as soon as 2 hours after administration”. In data set [2] (20 mg/kg, CP and ATP), the “Duration of protective effect” value was “up to 24 hours”. Moreover, in data set [2] (6 hours after oral administration), the “Cardioprotective action compared with verapamil” value is “substantially superior to that of verapamil”. Further, the ED50 in data set [2] (Rattus norvegicus, po, 6 h, rat, 6 hours after oral administration, read-out: ED 50% (pretreatment dose which increases the ATP level by 50% compared with the hypoxic control group)) came out at 13.6 mg/kg; in data set [3] (Mus musculus, po, 1 h, mouse, 1 hour after oral administration, read-out: ED 50% (dose at which 50% of the animals survived oxygen-deficient ventilation for 3 minutes)), 88 mg/kg. For the same molecule, in data set [2] (oral, rat), the “Dose dependence of protective effect” value was “An increase in dose results in a greater protective effect”. Also, in data set [2] (setting [18]), the Relative activity worked out at 1. In addition, in data set [2] (rat, in vivo), the “Toleration of the dose” value is given as “well tolerated”. Also, the “Effect on number of animals surviving hypoxia after 3 minutes” value (from here on “Effect on number”) in data set [3] is listed as “increase the number of experimental animals which survive after 3 minutes”. Further, the “Protective action against cerebral hypoxia compared with verapamil” value in data set [3] (mouse) is given as “superior protective action, compared with verapamil”. Besides, in data set [4], the Duration of action entry is recorded as “long duration of action”. The Oral availability entry in data set [4] (po) is recorded as “great oral availability”. Besides, the “Blood pressure, Change in %” value in data set [5] (6 hours after administration) was -5%. For the same molecule, the “Heart rate, Change in %” value in data set [5] (6 hours after administration) is recorded as -5%. Also, the “Blood pressure, 6 hours after administration of the substance” value in data set [5] (initial value 229) was 217. In addition, in data set [5] (initial value 398), the “Heart rate, 6 hours after administration of the substance” value turned out to be 378. For the same molecule, in data set [6] (in vivo), the “Risk of provoking conduction disturbances compared with verapamil” value is given as “substantially lower in the case of A than for verapamil”. Also, the “Therapeutic index compared with verapamil” value in data set [6] (in vivo) is “substantially greater therapeutic index than verapamil”. The “Effect on AV conduction” value in data set [6] (in vivo, iv, 0.4 mg/kg) was “no adverse effect at all on the AV conduction”.
For the molecule `CC(C)C(C#N)(CCCN(C)CCc1ccccc1)c1ccccc1` (single isomer, unassigned; (+)) [(+) A, (+)-1,7-Diphenyl-3-methylaza-7-cyano-8-methylnonane], in data set [2] (setting [18]), the “Efficacy relative to the racemate” value is on record as “about one fourth of the efficacy of the racemate”, the “ED 50% (pretreatment dose which increases the ATP level by 50% compared with the hypoxic control group)” value worked out at 50.3 mg/kg and the Relative activity is reported as 0.27. Besides, the “ED 50% (dose at which 50% of the animals survived oxygen-deficient ventilation for 3 minutes)” value in data set [3] (setting [19]) stood at 100 mg/kg.
On to `CC(C)C(C#N)(CCCN(C)CCc1ccccc1)c1ccccc1` (single isomer, unassigned; (-)) [(-) A, (-)-1,7-Diphenyl-3-methylaza-7-cyano-8-methylnonane], for which, in data set [2] (setting [18]), the “Effective dose compared with that of the antipode” value is reported as “substantially lower than that of the dextrorotatory antipode”, the “Efficacy relative to the racemate” value is on record as “about twice as effective as the racemate”, the “ED 50% (pretreatment dose which increases the ATP level by 50% compared with the hypoxic control group)” value turned out to be 6.6 mg/kg and the Relative activity is 2.06. The “Effect on number” value in data set [3] is listed as “increase the number of experimental animals which survive after 3 minutes”. The “ED 50% (dose at which 50% of the animals survived oxygen-deficient ventilation for 3 minutes)” value in data set [3] (setting [19]) is reported as 48 mg/kg.
On to `COc1ccc(CCN(C)CCCC(C#N)(c2ccc(OC)c(OC)c2)C(C)C)cc1OC` (centres unmarked) [verapamil, reference compound], for which, in data set [2] (setting [13]), the “Percentage difference in the amount of ATP” value is reported as 0%, the “Percentage difference in the amount of CP” value is reported as -9% and the “Percentage difference in the amount of Glycogen” value is 9%. In data set [2] (setting [20]), the “Percentage difference in the amount of ATP” value turned out to be 9%, the “Percentage difference in the amount of CP” value came to 9% and the “Percentage difference in the amount of Glycogen” value is -5%. Further, in data set [2] (setting [21]), the “Percentage difference in the amount of ATP” value is given as 20%, the “Percentage difference in the amount of CP” value was 21% and the “Percentage difference in the amount of Glycogen” value is 2%. Moreover, the “Protective action against the hypoxia-induced reduction in myocardial CP, ATP and glycogen” value in data set [2] (same dose as A or up to 4 times higher, 6 hours after oral administration) is “no significant protective action”. Moreover, the “Known effects on the heart and the circulation” value in data set [7] is “reduction in blood pressure and inhibition of AV conduction”. For the same molecule, the “Effect on number” value in data set [3] is “ineffective”. The “Survival of pretreated animals” value in data set [3] (after 3 minutes of hypoxia) was “dead after 3 minutes”. Further, in data set [8], the “Myocardial contractility (maximum systolic rate of increase in pressure in the left ventricle)” value was “reduction in the myocardial contractility” and the PQ interval result was “pronounced increase in the PQ interval”. In data set [6] (0.4 mg/kg intravenously), the AV block entry was “causes second degree AV blocks in all experimental animals” and the PQ interval entry was “greatly prolongs the PQ interval”.

These data come from patent US4596820A, “1,7-diphenyl-3-methylaza-7-cyano-8-methylnonane for use in the treatment of diseases” (priority 1983, dated 1986).
